Test results from US20050136444A1 (priority 2003, published 2005).
Where a name gives a salt, the structure may show the parent alone. Read-outs that look alike come from different tables or passages of the source.

What was measured:
[1] = molecular target: T1, NPFF2 (Homo sapiens, UniProt Q9Y5X5); assay: Receptor Selection and Amplification Technology (R-SAT) functional assay, NPFF2; type: cell-based; settings: Table 1; for Emax: Efficacy is relative to endogenous ligand, read-out: NPFF2 % Efficacy; for EC50 / NPFF2 pEC50: NA = No activity detectable at the highest dose tested (20 μM)
T1 construct: expressed in transfected cells; host or cells: NIH3T3
Description: (§1) Briefly, NIH3T3 cells were grown in 96 well tissue culture plates to 70-80% confluence. Cells were transfected for 16-20 h h with plasmid DNAs using Polyfect (Qiagen Inc.) as per manufacturer's protocols. R-SAT's were generally performed with 40 ng/well of receptor and 20 ng/well of β-galactosidase plasmid DNA. All receptor and G-protein constructs used were in the pSI-derived mammalian expression vector (Promega Inc) as described previously. […] For large-scale transfections, cells were transfected for 16-20 h, then trypsinized and frozen in DMSO. Frozen cells were later thawed, plated at ˜20,000 cells per well of a 96 half-area well plate that contained drug. With both methods, cells were then grown in a humidified atmosphere with 5% ambient CO2 for five days. Media was then removed from the plates and marker gene activity was measured by the addition of the β-galactosidase substrate o-nitrophenyl β-D-galactopyranoside (ONPG, in PBS with 0.5% NP-40). The resulting colorimetric reaction was measured in a spectrophotometric plate reader (Titertek Inc.) at 420 nm. All data were analyzed using the computer program XLFit (IDBSm).
(§2) R-SAT assay was conducted as set forth in […]

[2] = molecular target: NPFF1 (Homo sapiens, UniProt Q9GZQ6); assay: Receptor Selection and Amplification Technology (R-SAT) functional assay, NPFF1; type: cell-based; set-up: expressed in transfected cells; host or cells: NIH3T3; settings: R-SAT, Table 1; for Emax: Efficacy is relative to endogenous ligand, read-out: NPFF1 % Efficacy; for EC50: NA = No activity detectable at the highest dose tested (20 μM), read-out: NPFF1 pEC50 (converted)
Description: as §1, §2

[3] = R-SAT, read-out: NPFF2 pEC50 (converted)

NPFF1, sequence (Q9GZQ6 whole entry, species assumed): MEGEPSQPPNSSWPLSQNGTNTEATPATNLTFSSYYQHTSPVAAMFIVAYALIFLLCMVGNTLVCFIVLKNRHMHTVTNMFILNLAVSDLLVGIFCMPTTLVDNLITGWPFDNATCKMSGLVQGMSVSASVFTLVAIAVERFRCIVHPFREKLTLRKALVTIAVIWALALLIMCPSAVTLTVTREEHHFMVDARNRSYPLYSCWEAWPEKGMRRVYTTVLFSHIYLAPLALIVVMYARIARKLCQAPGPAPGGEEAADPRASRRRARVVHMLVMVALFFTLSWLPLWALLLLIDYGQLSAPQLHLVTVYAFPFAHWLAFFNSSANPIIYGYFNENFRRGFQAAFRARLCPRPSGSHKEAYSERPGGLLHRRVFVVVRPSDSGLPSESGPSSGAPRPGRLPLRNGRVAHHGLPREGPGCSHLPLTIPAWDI
T1 sequence (Q9Y5X5 103-522): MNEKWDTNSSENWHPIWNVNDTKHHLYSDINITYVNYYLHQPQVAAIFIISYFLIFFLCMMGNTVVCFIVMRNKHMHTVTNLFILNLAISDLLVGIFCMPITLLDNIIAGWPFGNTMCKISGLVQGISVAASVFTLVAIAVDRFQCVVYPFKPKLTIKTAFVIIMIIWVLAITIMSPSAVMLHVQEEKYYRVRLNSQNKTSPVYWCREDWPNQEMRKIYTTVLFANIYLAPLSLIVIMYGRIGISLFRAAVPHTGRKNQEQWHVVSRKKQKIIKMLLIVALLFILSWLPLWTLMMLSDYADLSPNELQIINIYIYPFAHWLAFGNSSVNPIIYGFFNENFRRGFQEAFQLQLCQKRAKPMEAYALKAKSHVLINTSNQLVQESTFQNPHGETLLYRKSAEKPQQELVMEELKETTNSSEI

SMILES	Emax ([1]; R-SAT)	EC50 [1, 3]	Emax [2]	EC50 [2]	NPFF2 pEC50 ([1]; R-SAT)	EC50 ([1]; NPFF2 pEC50, R-SAT)
N=C(N)NN=Cc1cccc(C(F)(F)F)c1F [Compound 2065, 1-[2-Fluoro-3-(trifluoromethyl)benzylideneamino]guanidine Hydrochloride]	45%	3.16 µM	9%	–	–	–
CCCC/C(=N\NC(=N)N)c1ccc(O)cc1 [Compound 1004]	106%	–	–	–	–	–
CC(=NNC(=N)N)c1ccc(Br)cc1 [Compound 3016, 1-[1-(4-Bromophenyl)ethylideneamino]guanidine Hydrochloride]	74%	1.58 µM	16%	–	–	–
CCN(CC)c1ccc(C=NNC(=N)N)cc1 [Compound 3038, 1-(4-Diethylaminobenzylideneamino)guanidine Hydrochloride]	65%	1.26 µM	72%	1 µM	–	–
N=C(N)NN=Cc1ccc2c(c1)Cc1ccccc1-2 [Compound 2028, Hydrochloride]	68%	–	37%	1.58 µM	–	1.26 µM
CCCCC(=NNC(=N)N)c1ccc(N(C)C)cc1 (mixture of isomers) [Compound 3035, 1-[1-(4-Dimethylaminophenyl)pentylideneamino]guanidine]	69%	2 µM	81%	3.16 µM	–	–
N=C(N)NN=Cc1ccc(Oc2ccccc2)cc1 [Compound 2020, 1-(4-Phenoxybenzylideneamino)guanidine Hydrochloride]	31%	0.501 µM	24%	1.26 µM	–	–
CC(=NNC(=N)N)c1ccc(N2CCCCC2)cc1 [Compound 3039, 1-[1-(4-Piperidin-1-yl-phenyl)ethylideneamino]guanidine Hydrochloride]	46%	0.501 µM	43%	0.398 µM	–	–
N=C(N)NN=Cc1cc(F)ccc1[N+](=O)[O-] [Compound 2004, 1-(5-Fluoro-2-nitrobenzylideneamino)guanidine Hydrochloride]	38%	10 µM	–	–	–	–
CC(=NNC(=N)N)c1ccc2c(c1)OCCO2 [Compound 2040, 1-[1-(2,3-Dihydro-benzo[1,4]dioxin-6-yl)ethylideneamino]guanidine Hydrochloride]	65%	7.94 µM	18%	–	–	–
N=C(N)NN=Cc1cc2c(cc1Br)OCO2 [Compound 3015, 1-[(6-Bromobenzo[1,3]dioxol-5-yl)methylideneamino]guanidine Hydrochloride]	70%	1.26 µM	26%	1 µM	–	–
CCCCCc1ccc(C=NNC(=N)N)cc1 [Compound 3022, 1-(4-n-pentylbenzylideneamino)guanidine Hydrochloride]	55%	1.26 µM	13%	–	–	–
CC(=NNC(=N)N)c1cccc(Br)c1 [Compound 2003, 1-[1-(3-Bromophenyl)ethylideneamino]guanidine Hydrochloride]	49%	1.58 µM	–	–	–	–
CCN(CC)c1ccc(C=NNC(=N)N)c(O)c1 [Compound 3037, 1-(4-Diethylamino-2-hydroxybenzylideneamino)guanidine Hydrochloride]	59%	3.16 µM	39%	0.794 µM	–	–
C/C(=N\NC(=N)N)c1cc(Br)ccc1Br [Compound 1006]	53%	–	–	–	–	–
CC(=NNC(=N)N)c1ccc(Cl)c(Cl)c1 [Compound 3012, 1-[1-(3,4-Dichlorophenyl)ethylideneamino]guanidine Hydrochloride]	63%	0.251 µM	0%	–	–	–
N#CCCCCOc1ccc(C=NNC(=N)N)cc1Cl [Compound 2044, 1-[3-Chloro-4-(4-cyanobutoxy)benzylideneamino]guanidine Hydrochloride]	45%	3.98 µM	–	–	–	–
N=C(N)NN=Cc1c2ccccc2cc2ccccc12 [Compound 2006, 1-[(Anthracen-9-yl)methylideneamino]guanidine Hydrochloride]	51%	0.794 µM	–	–	–	–
CCCCC/C(=N\NC(=N)N)c1ccc(C)cc1 [Compound 1002]	41%	–	–	–	6.2	–
C/C(=N\NC(=N)N)c1ccccc1 [Compound 1010]	51%	–	–	–	5.2	–
CCCCC/C(=N/NC(=N)N)c1cccc(C)c1 [Compound 1001]	49%	–	–	–	–	–

Second part, led by results:

Emax ([1]; R-SAT)	EC50 [1, 3]	Emax [2]	EC50 [2]	NPFF2 pEC50 ([1]; R-SAT)	SMILES	EC50 ([1]; NPFF2 pEC50, R-SAT)
29%	3.16 µM	5%	–	–	COc1cc(C=NNC(=N)N)cc(OC)c1 [Compound 2007, 1-(3,5-Dimethoxybenzylideneamino)guanidine Hydrochloride]	–
34%	0.794 µM	4%	–	–	N=C(N)NN=Cc1ccc(F)c(Cl)c1 [Compound 2013, 1-(3-Chloro-4-fluorobenzylideneamino)guanidine Hydrochloride]	–
39%	2.51 µM	–	–	–	N=C(N)NN=Cc1cccc(C(F)(F)F)c1 [Compound 2002, 1-[3-(Trifluoromethyl)benzylideneamino]guanidine Hydrochloride]	–
58%	7.94 µM	9%	–	–	CCOc1ccc(C=NNC(=N)N)cc1OCC [Compound 2026, 1-(3,4-Diethoxybenzylideneamino)guanidine]	–
96%	10 µM	21%	–	–	CCOCCOc1ccc(/C=N/NC(=N)N)cc1Cl [Compound 2054, 1-[3-Chloro-4-(2-ethoxy-ethoxy)benzylideneamino])guanidine Acetate]	–
70%	–	–	–	5.5	COc1ccc(/C=N/NC(=N)N)cc1I [Compound 1005]	–
49%	5.01 µM	89%	10 µM	–	CCOc1ccc(C=NNC(=N)N)cc1 [Compound 4005, 1-(4-Ethoxybenzylideneamino)guanidine Hydrochloride]	–
53%	10 µM	30%	10 µM	–	CN(CCO)c1ccc(C=NNC(=N)N)cc1 [Compound 3041, 1-{4-[Methyl-(2-hydroxyethyl)amino]benzylideneamino}guanidine Hydrochloride]	–
97%	–	–	–	5.0	COc1ccc(/C=N/NC(=N)N)cc1 [Compound 1014]	–
79%	5.01 µM	31%	10 µM	–	COc1cc(Cl)cc(C=NNC(=N)N)c1OC [Compound 2059, 1-(5-Chloro-2,3-dimethoxybenzylideneamino)guanidine Hydrochloride]	–
101%	2 µM	28%	3.16 µM	–	CCc1ccc(C=NNC(=N)N)cc1 [Compound 3025, 1-(4-Ethylbenzylideneamino)guanidine Hydrochloride]	–
35%	2 µM	8%	–	–	COc1ccc(C=NNC(=N)N)cc1Br [Compound 2014, 1-(3-Bromo-4-methoxybenzylideneamino)guanidine Hydrochloride]	–
16%	–	1%	–	–	N=C(N)NN=Cc1ccc(O)c(Cl)c1 [Compound 2031, 1-(3-Chloro-4-hydroxybenzylideneamino)guanidine Hydrochloride]	–
105%	2.51 µM	26%	3.98 µM	–	COc1ccc(C=NNC(=N)N)c(C)c1C [Compound 2034, 1-(4-Methoxy-2,3-dimethylbenzylideneamino)guanidine Hydrochloride]	–
47%	2 µM	–	–	–	COc1ccc(C=NNC(=N)N)cc1Cl [Compound 2043, 1-(3-Chloro-4-methoxybenzylideneamino)guanidine Hydrochloride]	–
62%	2.51 µM	6%	–	–	N=C(N)NN=Cc1ccc(Cl)c(F)c1 [Compound 2030, 1-(4-Chloro-3-fluorobenzylideneamino)guanidine Hydrochloride]	–
32%	5.01 µM	-1%	–	–	COc1ccc(OC)c(C(C)=NNC(=N)N)c1 (mixture of isomers) [Compound 3029, 1-[1-(2,5-Dimethoxyphenyl)ethylideneamino]guanidine Hydrochloride]	–
53%	1.26 µM	7%	–	–	N=C(N)NN=Cc1ccc(F)c(Br)c1 [Compound 2010, 1-(3-Bromo-4-fluorobenzylideneamino)guanidine Hydrochloride]	–
51%	–	–	–	5.2	CN(C)c1ccc(/C=N/NC(=N)N)cc1[N+](=O)[O-] [Compound 1012]	–
60%	0.794 µM	–	–	–	C=CCOc1ccc(C=NNC(=N)N)cc1Cl [Compound 2042, 1-(4-Allyloxy-3-chlorobenzylideneamino)guanidine Hydrochloride]	–
102%	–	–	–	–	N=C(N)N/N=C/c1ccc(Br)cc1 [Compound 1007]	–
